This is an account of results in patent US20220348592A1, “FUSED HETEROCYCLIC DERIVATIVES” (Janssen Sciences Ireland Unlimited Company, priority 2019, published 2022).

What is called EC50 is the concentration needed to bring the measured effect to its halfway point. Broadly, the CC50 is the concentration giving 50% cytotoxicity. Usually melting point stands for the temperature of the solid-liquid transition.

Like-named read-outs stand apart in the source and are kept apart here.

The subject of one data set is HBV. The experiment in a line: Anti-HBV activity: intracellular HBV DNA by real-time PCR in HepG2.117 cell line. In kind it is cell-based, Hepatitis B virus. The following applies: HepG2.117 cells, 3 days of treatment, intracellular HBV DNA by real-time PCR, mean value, read-out: HBV-AVE-HepG2.117 EC50 (μM, mean value). The method, boiled down: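 HepG2.117 cells, a Tet-off inducible HBV-producing line, induced to replicate HBV and then treated with serially diluted compound. After 3 days, intracellular HBV DNA quantified by real-time PCR with HBV-specific primers and probe.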
For orientation: Quantitative PCR measures a nucleic acid by following its amplification.

In another data set the test system is HepG2.117 cells. Briefly: Cytotoxicity in HepG2.117 cells, ATPlite Luminescence Assay. Type of data set: cell-based, human. As to conditions: incubated for 3 days, mean value, read-out: TOX-HepG2.117 CC50 (μM, mean value). The method, then: (§1) Cytotoxicity of the compounds was tested using HepG2 or HepG2.117 cells, incubated for 3 days in the presence of compounds. The viability of the cells was assessed using the PERKIN ELMER ATPlite Luminescence Assay System.”

The nature of data set [1]: Cytotoxicity in HepG2.117 cells, ATPlite Luminescence Assay. The following applies: human, incubated for 3 days, mean value, read-out: TOX-HepG2.117 CC50 (μM, mean value). Type of data set: cell-based, human. How it is done:
as §1

For `C[C@@H]1Cc2nn3c(c2CN1C(=O)c1ccc(Cl)c(Cl)c1)C(=O)N(C)OC(CF)C3` (stereo in doubt) [Compound 47, (4*R,9R)-10-(3,4-Dichlorobenzoyl)-4-(fluoromethyl)-2,9-dimethyl-4,5,8,9,10,11-hexahydro-pyrido[4′,3′:3,4]pyrazolo[5,1-d][1,2,5]oxadiazepin-1(2H)-one], in the data set with HBV, the EC50 amounted to 0.249 µM. Besides, the CC50 in the data set on HepG2.117 cells stood at 3.63 µM.

In turn, `CC(C)N1CCn2nc3c(c2C1=O)CN(C(=O)c1ccc(Cl)c(Cl)c1)CC3` [Compound 2, 2-(3,4-Dichlorobenzoyl)-9-(propan-2-yl)-1,2,3,4,8,9-hexahydropyrido[4′,3′:3,4]pyrazolo[1,5-a]-pyrazin-10(7H)-one] gave a melting point of 190 °C. In the data set with HBV (Hepatitis B virus, 72 h), the EC50 turned out to be 1.15 µM. In addition, in data set [1], the CC50 at 3 days is > 50 µM.

`O=C1NCCCn2nc3c(c21)CN(C(=O)c1ccc(Cl)c(Cl)c1)CC3` [Compound 33, 2-(3,4-Dichlorobenzoyl)-1,2,3,4,7,8,9,10-octahydro-11H-pyrido[4′,3′:3,4]pyrazolo[1,5-a][1,4]-diazepin-11-one] returned a melting point of 237 °C. Also, in the data set on HBV (Hepatitis B virus, 72 h), the EC50 turned out to be 9.61 µM. In addition, the CC50 at 3 days in data set [1] is > 50 µM.
